Experimental data published in patent US20090298894A1, “AMINO ACID COMPOUNDS” (Asahi Kasei Pharma Corporation, priority 2008, published 2009).
pEC50: −log10 of the molar value. Structures can show the parent of a compound that is named as a salt.

Biological target: T1, human S1P1 (Homo sapiens, UniProt P21453)
T1 construct: expressed in transfected cells
Test: 35S-GTPγS binding assay using a membrane prepared from CHO cells which stably express S1P1 receptor
Type: biochemical
Conditions: CHO cell membrane fraction stably expressing human S1P1, read-out: EC50 (concentration of agonist required to give 50% of its own maximum increase ratio), human S1P1
Experimental: ^35S-GTPγS Binding Assay Using a Membrane Prepared from CHO Cells Which Stably Express S1P1 Receptor
Functional activation of human S1P1 by the compounds was determined based on quantification of ^35S-GTPγS binding to G protein due to the receptor activation, by using a cell membrane fraction prepared from CHO cells in which human S1P1 are stably expressed. As for human S1P1, the above described human S1P1 was used. Membrane proteins as prepared and various concentrations of sphingosine-1-phosphate or the compounds diluted in a solvent such as DMSO were incubated in a solution comprising 20 mM Tris-Cl (pH 7.5), 100 mM NaCl, 10 mM MgCl2, […] (Upstate), 0.1% BSA (fatty acid free, Sigma) and 25 pM ^35S-GTPγS (specific activity 1250 Ci/mmol) in 96 well microtiter plates. Binding was performed by incubating them for 90 minutes at room temperature, and then terminated by harvesting the membrane proteins onto multiscreeen harvest FB plates (Millipore) using Millipore multiscreen separation system. After drying the harvest plates at least for 12 hours, 25 μl of MicroScint-O (Perkin Elmer) was added to each well and radioactivity was measured using a Top Counter.
Having the value measured for the well to which a solvent has been added as a control value, the agonist activity of the compounds was determined by comparing the increase in the well to which a test compound has been added to the control value, and therefore an increase ratio for each concentration of the compounds was obtained. EC50 values were culcurated as defined to be the concentration of agonist required to give 50% of its own maximum increase ratio.

T1 sequence (P21453 whole entry): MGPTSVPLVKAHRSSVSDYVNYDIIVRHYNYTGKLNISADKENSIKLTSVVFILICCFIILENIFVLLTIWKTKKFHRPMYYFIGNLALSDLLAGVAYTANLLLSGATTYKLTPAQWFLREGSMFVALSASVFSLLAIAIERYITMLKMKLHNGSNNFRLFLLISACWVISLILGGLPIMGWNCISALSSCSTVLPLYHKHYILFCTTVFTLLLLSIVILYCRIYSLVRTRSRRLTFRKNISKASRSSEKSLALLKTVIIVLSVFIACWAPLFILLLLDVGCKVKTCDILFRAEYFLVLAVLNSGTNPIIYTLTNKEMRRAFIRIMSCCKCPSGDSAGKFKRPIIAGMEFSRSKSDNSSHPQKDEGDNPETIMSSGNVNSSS

pEC50, > 8.00:
CSc1ccccc1-c1ccc(-c2nc(-c3ccc4c(c3)CCC4N[C@H]3C[C@H](C(=O)O)C3)no2)cc1C (mixture of isomers) [Example 6, 1,3-Trans-3-(5-(5-(2-methyl-2′-methylthiobiphenyl-4-yl)-1,2,4-oxadiazol-3-yl)-2,3-dihydro-1H-inden-1-ylamino)cyclobutane carboxylic acid hydrochloric acid salt]
Cc1cc(-c2nc(-c3ccc4c(c3)CCC4N[C@H]3C[C@H](C(=O)O)C3)no2)cc(C)c1-c1ccccc1 (stereo partly drawn) [Example 2]
Cc1cc(-c2nc(-c3ccc4c(c3)CCC4N[C@H]3C[C@H](C(=O)O)C3)no2)ccc1-c1ccsc1 (stereo partly drawn) [Example 3]
Cc1cc(-c2nc(-c3ccc4c(c3)CCC4N[C@H]3C[C@H](C(=O)O)C3)no2)ccc1-c1cccc(F)c1 (stereo partly drawn) [Example 4]
Cc1cc(-c2nc(-c3ccc4c(c3)CCC4N[C@H]3C[C@H](C(=O)O)C3)no2)c(F)cc1-c1ccsc1 (stereo partly drawn) [Example 5]
CSc1ccccc1-c1ccc(-c2nc(-c3ccc4c(c3)CN([C@H]3C[C@H](C(=O)O)C3)C4)no2)cc1C [Example 10]
Cc1cc(-c2nc(-c3ccc4c(c3)CCC4N[C@H]3C[C@H](C(=O)O)C3)no2)c(F)cc1-c1ccccc1 (stereo partly drawn) [Example 12]
Cc1cc(-c2nc(-c3ccc4c(c3)CCC4N[C@H]3C[C@H](C(=O)O)C3)no2)c(F)cc1-c1ccoc1 (stereo partly drawn) [Example 13]
Cc1cc(-c2nc(-c3ccc4c(c3)CCC4N[C@H]3C[C@H](C(=O)O)C3)no2)ccc1-c1ccoc1 (stereo partly drawn) [Example 14]
Cc1cc(-c2nc(-c3ccc4c(c3)CCC4N[C@H]3C[C@H](C(=O)O)C3)no2)cc(C)c1-c1ccccc1F (stereo partly drawn) [Example 15]
Cc1cc(-c2nc(-c3ccc4c(c3)CCC4N[C@H]3C[C@H](C(=O)O)C3)no2)cc(C)c1-c1ccsc1 (stereo partly drawn) [Example 16]
Cc1cc(-c2nc(-c3ccc4c(c3)CCC4N[C@H]3C[C@H](C(=O)O)C3)no2)ccc1-c1ccccc1OC(F)(F)F (stereo partly drawn) [Example 17]
Cc1cc(-c2nc(-c3ccc4c(c3)CCC4N[C@H]3C[C@H](C(=O)O)C3)no2)ccc1-c1ccccc1F (stereo partly drawn) [Example 20]
Cc1cc(-c2nc(-c3ccc4c(c3)CCC4N[C@H]3C[C@H](C(=O)O)C3)no2)ccc1-c1ccccc1C(F)(F)F (stereo partly drawn) [Example 21]
Cc1cscc1-c1c(C)cc(-c2nc(-c3ccc4c(c3)CCC4N[C@H]3C[C@H](C(=O)O)C3)no2)cc1C (stereo partly drawn) [Example 22]
Cc1cc(-c2nc(-c3ccc4c(c3)CCC4N[C@H]3C[C@H](C(=O)O)C3)no2)c(F)cc1-c1cccc(F)c1 (stereo partly drawn) [Example 23]
Cc1cc(-c2nc(-c3ccc4c(c3)CCC4N[C@H]3C[C@H](C(=O)O)C3)no2)c(F)cc1-c1ccccc1OC(F)(F)F (stereo partly drawn) [Example 24]
Cc1cc(-c2nc(-c3ccc4c(c3)CCC4N[C@H]3C[C@H](C(=O)O)C3)no2)ccc1-c1cscc1C (stereo partly drawn) [Example 25]
Cc1cc(-c2nc(-c3ccc4c(c3)CCC4N[C@H]3C[C@H](C(=O)O)C3)no2)c(F)cc1-c1ccccc1F (stereo partly drawn) [Example 26]
Cc1cc(-c2nc(-c3ccc4c(c3)CCC4N[C@H]3C[C@H](C(=O)O)C3)no2)ccc1-c1cccc(F)c1F (stereo partly drawn) [Example 28]
Cc1cc(-c2nc(-c3ccc4c(c3)CCC4N[C@H]3C[C@H](C(=O)O)C3)no2)ccc1-c1cc(F)ccc1F (stereo partly drawn) [Example 29]
Cc1cc(-c2nc(-c3ccc4c(c3)CCC4N[C@H]3C[C@H](C(=O)O)C3)no2)c(F)cc1-c1ccccc1C(F)(F)F (stereo partly drawn) [Example 30]
Cc1cc(-c2nc(-c3ccc4c(c3)CCC4N[C@H]3C[C@H](C(=O)O)C3)no2)ccc1-c1cccc(C(F)(F)F)c1F (stereo partly drawn) [Example 31]
Cc1cc(-c2nc(-c3ccc4c(c3)CCC4N[C@H]3C[C@H](C(=O)O)C3)no2)c(F)cc1-c1cccc(F)c1F (stereo partly drawn) [Example 32]
Cc1cc(-c2nc(-c3ccc4c(c3)CCC4N[C@H]3C[C@H](C(=O)O)C3)no2)ccc1-c1cccc(Cl)c1F (stereo partly drawn) [Example 34]
Cc1cc(-c2nc(-c3ccc4c(c3)CCC4N[C@H]3C[C@H](C(=O)O)C3)no2)ccc1-c1cc(Cl)ccc1F (stereo partly drawn) [Example 35]
Cc1cc(-c2nc(-c3ccc4c(c3)CCC4N[C@H]3C[C@H](C(=O)O)C3)no2)ccc1-c1cc(C(F)(F)F)ccc1F (stereo partly drawn) [Example 36]
Cc1cc(-c2nc(-c3ccc4c(c3)CCC4N[C@H]3C[C@H](C(=O)O)C3)no2)ccc1-c1cccc(C)c1F (stereo partly drawn) [Example 37]
COc1cccc(-c2ccc(-c3nc(-c4ccc5c(c4)CCC5N[C@H]4C[C@H](C(=O)O)C4)no3)cc2C)c1F (stereo partly drawn) [Example 38]
Cc1cc(-c2nc(-c3ccc4c(c3)CCC4N[C@H]3C[C@H](C(=O)O)C3)no2)ccc1-c1cccc(F)c1C(F)(F)F (stereo partly drawn) [Example 39]
Cc1cc(-c2nc(-c3ccc4c(c3)CCC4N[C@H]3C[C@H](C(=O)O)C3)no2)c(F)cc1-c1cccc(F)c1C(F)(F)F (stereo partly drawn) [Example 40]
Cc1cc(-c2nc(-c3ccc4c(c3)CCC4N[C@H]3C[C@H](C(=O)O)C3)no2)c(F)cc1-c1cccc(C(F)(F)F)c1F (stereo partly drawn) [Example 41]
Cc1cc(-c2nc(-c3ccc4c(c3)CCC4N[C@H]3C[C@H](C(=O)O)C3)no2)ccc1-c1c(F)cccc1F (stereo partly drawn) [Example 42]
Cc1cc(-c2nc(-c3ccc4c(c3)CCC4N[C@H]3C[C@H](C(=O)O)C3)no2)ccc1-c1c(F)ccc(C)c1Cl (stereo partly drawn) [Example 43]
Cc1cc(-c2nc(-c3ccc4c(c3)CCC4N[C@H]3C[C@H](C(=O)O)C3)no2)ccc1-c1c(Cl)ccc(C)c1F (stereo partly drawn) [Example 44]
Cc1cc(-c2nc(-c3ccc4c(c3)CCC4N[C@H]3C[C@H](C(=O)O)C3)no2)ccc1-c1c(F)ccc(F)c1F (stereo partly drawn) [Example 45]
Cc1cc(-c2nc(-c3ccc4c(c3)CCC4N[C@H]3C[C@H](C(=O)O)C3)no2)ccc1-c1cc(F)cc(F)c1F (stereo partly drawn) [Example 46]
Cc1cc(-c2nc(-c3ccc4c(c3)CCC4N[C@H]3C[C@H](C(=O)O)C3)no2)ccc1-c1cccc(C(F)(F)F)c1C(F)(F)F (stereo partly drawn) [Example 47]
Cc1cc(-c2nc(-c3ccc4c(c3)CCC4NC3CC(C(=O)O)C3)no2)ccc1-c1cccc([N+](=O)[O-])c1C(F)(F)F (stereo not drawn) [Example 49]
Cc1cc(-c2nc(-c3ccc4c(c3)CCC4N[C@H]3C[C@H](C(=O)O)C3)no2)ccc1-c1cccc(Cl)c1C(F)(F)F (stereo partly drawn) [Example 50]
Cc1cc(-c2nc(-c3ccc4c(c3)CCC4N[C@H]3C[C@H](C(=O)O)C3)no2)ccc1-c1cccc(Br)c1C(F)(F)F (stereo partly drawn) [Example 51]
Cc1cc(-c2nc(-c3ccc4c(c3)CCC4N[C@H]3C[C@H](C(=O)O)C3)no2)ccc1-c1cccc(I)c1C(F)(F)F (stereo partly drawn) [Example 52]
